Assay results reported in the supplement of paper PMC10307832.

Assays:
Assay in all cases: relative viability (nuclei count vs DMSO), 5 days (fraction); higher = more cells survive
Alpelisib + Navitoclax = compound: Cc1nc(NC(=O)N2CCC[C@H]2C(N)=O)sc1-c1ccnc(C(C)(C)C(F)(F)F)c1 [Alpelisib] + CC1(C)CCC(c2ccc(Cl)cc2)=C(CN2CCN(c3ccc(C(=O)NS(=O)(=O)c4ccc(N[C@H](CCN5CCOCC5)CSc5ccccc5)c(S(=O)(=O)C(F)(F)F)c4)cc3)CC2)C1 [Navitoclax] (partner 0.5 µM)
Procedure, shortened: (§1)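 The day after seeding in 1536-well plates, lung cancer cell lines were treated by pin tool with a single drug, or with a fixed anchor-drug dose together with five library-drug doses (not always all listed) in √10 steps. After 5 days, a combined fix-and-stain solution (final 0.05% Triton X-100, 1% formaldehyde, 1 ug/ml Hoechst) was added. Nuclei counted on 4× images gave relative viability as treated counts over vehicle counts, reported as the median of duplicate plates.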

OSI-027 + Dasatinib = compound: COc1cccc2cc(-c3nc([C@H]4CC[C@H](C(=O)O)CC4)n4ncnc(N)c34)[nH]c12 [OSI-027] + Cc1nc(Nc2ncc(C(=O)Nc3c(C)cccc3Cl)s2)cc(N2CCN(CCO)CC2)n1 [Dasatinib] (partner 0.075 µM)
Procedure, shortened: as §1

Vemurafenib + Decitabine = compound: CCCS(=O)(=O)Nc1ccc(F)c(C(=O)c2c[nH]c3ncc(-c4ccc(Cl)cc4)cc23)c1F [Vemurafenib] + Nc1ncn([C@H]2C[C@H](O)[C@@H](CO)O2)c(=O)n1 [Decitabine] (partner 2 µM)
Procedure, shortened: as §1

Vemurafenib + Vorinostat = compound: CCCS(=O)(=O)Nc1ccc(F)c(C(=O)c2c[nH]c3ncc(-c4ccc(Cl)cc4)cc23)c1F [Vemurafenib] + O=C(CCCCCCC(=O)Nc1ccccc1)NO [Vorinostat] (partner 1 µM)
Procedure, shortened: as §1

| Cell Line | relative viability (Alpelisib + Navitoclax; first compound 0.04 µM) | relative viability (Alpelisib + Navitoclax; first compound 0.1265 µM) | relative viability (Alpelisib + Navitoclax; first compound 0.4 µM) | relative viability (Alpelisib + Navitoclax; first compound 1.265 µM) | relative viability (Alpelisib + Navitoclax; first compound 4 µM) | relative viability (OSI-027 + Dasatinib; first compound 0.01 µM) | relative viability (OSI-027 + Dasatinib; first compound 0.03162 µM) | relative viability (OSI-027 + Dasatinib; first compound 0.1 µM) | relative viability (OSI-027 + Dasatinib; first compound 0.3162 µM) | relative viability (OSI-027 + Dasatinib; first compound 1 µM) | relative viability (Vemurafenib + Decitabine; first compound 0.03162 µM) | relative viability (Vemurafenib + Decitabine; first compound 0.1 µM) | relative viability (Vemurafenib + Decitabine; first compound 0.3162 µM) | relative viability (Vemurafenib + Decitabine; first compound 1 µM) | relative viability (Vemurafenib + Vorinostat; first compound 0.03162 µM) | relative viability (Vemurafenib + Vorinostat; first compound 0.1 µM) | relative viability (Vemurafenib + Vorinostat; first compound 0.3162 µM) | relative viability (Vemurafenib + Vorinostat; first compound 1 µM) |
| --- | --- | --- | --- | --- | --- | --- | --- | --- | --- | --- | --- | --- | --- | --- | --- | --- | --- | --- |
| NCI-H441 | 0.571 | 0.434 | 0.8 | 0.43 | 0.552 | 0.74 | 0.577 | 0.706 | 0.505 | 0.526 | 0.252 | 0.262 | 0.28 | 0.231 | 0.875 | 0.663 | 0.652 | 0.642 |
| NCI-H661 | – | – | – | – | – | 0.664 | 0.989 | 0.708 | 0.602 | 0.383 | 0.521 | 0.495 | 0.567 | 0.625 | 0.73 | 0.72 | 0.803 | 0.749 |
| NCI-H727 | 0.33 | 0.303 | 0.411 | 0.244 | 0.137 | 0.368 | 1.04 | 0.354 | 0.394 | 0.339 | 0.688 | 0.762 | 0.964 | 0.866 | 1.01 | 0.978 | 1.41 | 1.27 |
| NCI-H1651 | 0.956 | 1.11 | 1.04 | 0.773 | 0.791 | 0.405 | 0.325 | 0.352 | 0.358 | 0.213 | 0.532 | 0.633 | 0.494 | 0.621 | 0.524 | 0.581 | 0.471 | 0.625 |
| NCI-H1355 | 0.89 | 1.02 | 1.07 | 0.927 | 0.84 | 0.718 | 0.564 | 0.534 | 0.409 | 0.324 | 0.344 | 0.348 | 0.363 | 0.37 | 0.56 | 0.58 | 0.566 | 0.642 |
| NCI-H1793 | 0.419 | 0.335 | 0.356 | 0.376 | 0.365 | 0.352 | 0.391 | 0.389 | 0.279 | 0.193 | 0.449 | 0.325 | 0.672 | 0.492 | 0.652 | 0.426 | 0.78 | 0.702 |
| NCI-H1666 | 0.95 | 0.677 | 0.937 | 0.762 | 0.689 | 0.825 | 0.778 | 0.732 | 0.733 | 0.463 | 0.612 | 0.724 | 0.686 | 0.764 | 0.972 | 1.05 | 1.08 | 1.01 |
| NCI-H838 | 1.02 | 1.08 | 1.15 | 1.04 | 1.01 | 0.283 | 0.276 | 0.224 | 0.227 | 0.239 | 0.467 | 0.485 | 0.54 | 0.598 | 0.683 | 0.726 | 0.6 | 0.844 |
| NCI-H1975 | 0.963 | 1.06 | 1.03 | 0.788 | 0.511 | 0.309 | 0.362 | 0.334 | 0.301 | 0.316 | 0.419 | 0.418 | 0.345 | 0.32 | 0.715 | 0.661 | 0.602 | 0.726 |
